In paper PMC7917842, “Chlortetracycline, a Novel Arf Inhibitor That Decreases the Arf6-Dependent Invasive Properties of Breast Cancer Cells” (Molecules, 2021):

Key:
Arf6 = molecular target: T1, Arf6 (Homo sapiens, UniProt P62330); experiment: mant-GTP loading (FRET) on purified Arf6 with EFA6A and azolectin liposomes; also […]GTPγS binding and tryptophan fluorescence; type: biochemical
T1 construct: full-length Arf6, C-terminal hexa-his tag (non myristoylated); also myristoylated Arf6; with EFA6A (exchange factor in the IC50 assay)

Arf1 = molecular target: T2, Arf1 (Homo sapiens, UniProt P84077); experiment: spontaneous mant-GTP loading on purified myrArf1 with azolectin, […] CTC; also ARNO-catalysed exchange; type: biochemical
T2 construct: recombinant myristoylated Arf1 (myrArf1)
T2 sequence (P84077 2-181): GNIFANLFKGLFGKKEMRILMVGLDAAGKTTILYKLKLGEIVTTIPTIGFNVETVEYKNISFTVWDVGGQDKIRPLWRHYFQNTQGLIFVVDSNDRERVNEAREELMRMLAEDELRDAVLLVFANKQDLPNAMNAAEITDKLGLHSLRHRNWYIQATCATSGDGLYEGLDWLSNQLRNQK

T1 sequence (Q8NDX1 whole entry): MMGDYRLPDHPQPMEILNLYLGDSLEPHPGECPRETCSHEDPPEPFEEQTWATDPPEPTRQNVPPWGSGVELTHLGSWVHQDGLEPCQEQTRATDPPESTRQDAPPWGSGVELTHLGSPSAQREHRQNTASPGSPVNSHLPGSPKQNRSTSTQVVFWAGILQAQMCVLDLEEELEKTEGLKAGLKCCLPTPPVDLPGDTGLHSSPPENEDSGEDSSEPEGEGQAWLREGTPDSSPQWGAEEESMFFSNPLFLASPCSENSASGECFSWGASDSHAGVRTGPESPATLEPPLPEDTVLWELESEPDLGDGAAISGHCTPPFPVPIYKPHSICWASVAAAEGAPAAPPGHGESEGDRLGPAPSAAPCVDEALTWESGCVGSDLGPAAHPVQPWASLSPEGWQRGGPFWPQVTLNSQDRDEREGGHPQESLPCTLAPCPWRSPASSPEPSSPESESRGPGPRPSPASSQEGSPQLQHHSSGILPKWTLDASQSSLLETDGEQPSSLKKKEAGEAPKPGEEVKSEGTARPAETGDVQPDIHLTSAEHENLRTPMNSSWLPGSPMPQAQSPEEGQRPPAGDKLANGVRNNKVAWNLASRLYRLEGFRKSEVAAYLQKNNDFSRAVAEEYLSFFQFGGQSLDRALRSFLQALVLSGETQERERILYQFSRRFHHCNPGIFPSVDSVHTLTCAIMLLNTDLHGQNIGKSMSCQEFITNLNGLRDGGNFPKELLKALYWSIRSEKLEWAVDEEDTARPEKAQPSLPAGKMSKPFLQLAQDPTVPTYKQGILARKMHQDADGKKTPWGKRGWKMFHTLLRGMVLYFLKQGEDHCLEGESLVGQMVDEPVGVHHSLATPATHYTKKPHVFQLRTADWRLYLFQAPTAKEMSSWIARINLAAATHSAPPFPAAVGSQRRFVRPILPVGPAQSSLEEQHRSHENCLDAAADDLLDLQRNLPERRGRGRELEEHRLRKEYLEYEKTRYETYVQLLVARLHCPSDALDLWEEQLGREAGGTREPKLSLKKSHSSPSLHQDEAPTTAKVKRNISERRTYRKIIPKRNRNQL
T1 sequence (P62330 2-175): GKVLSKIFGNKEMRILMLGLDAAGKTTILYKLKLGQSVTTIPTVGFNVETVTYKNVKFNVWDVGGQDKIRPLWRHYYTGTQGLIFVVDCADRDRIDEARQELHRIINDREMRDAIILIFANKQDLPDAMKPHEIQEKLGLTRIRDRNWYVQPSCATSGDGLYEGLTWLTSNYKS

CN(C)[C@@H]1C(O)=C(C(N)=O)C(=O)[C@@]2(O)C(O)=C3C(=O)c4c(O)ccc(Cl)c4[C@@](C)(O)[C@H]3C[C@@H]12 [CTC, chlortetracycline]
IC50 (Arf6): 75 µM | spontaneous mant-GTP loading on purified myrArf1 with azolectin, 100 μM CTC; als (Arf1): CTC was able to strongly inhibit the spontaneous activation on the myristoylated forms of Arf6 (myrArf6) and Arf1 (myrArf1)
